Literature values as cited in patent US6187343A, “Proceeding for the preparation of the prolonged action granule compound containing 4-nitro-2-phenoxymethanesulfonanilide” (priority 1997, dated 2001).

Details: in vivo

SMILES: CS(=O)(=O)Nc1ccc([N+](=O)[O-])cc1Oc1ccccc1 [NIMESULIDE, 4-nitro-2-phenoxymethanesulfonanilide]
- adverse effects: adverse effects of the digestive type
